# Source: ChEMBL document CHEMBL6115002, “Discovery of novel sitolactone derivative leading to PANoptosis and differentiation of acute myeloid leukemia cells” (Eur J Med Chem, 2025)
# Calls of active or inactive are those of the source. The calls are words filed in the database; no cut-off is given here.
# What was measured:
# [1] = system: BXPC-3; assay: Antiproliferative activity against human BXPC-3 cells assessed as inhibition of cell proliferation incubated for 72 hrs by CCK-8 assay; assay type: functional, cell-based; conditions: BXPC-3, 72 h
# [2] = system: NCI-H460; assay: Inhibition of tumor sphere formation in human NCI-H460 cells incubated for 24 hrs; assay type: functional, cell-based
# [3] = system: HCT-116; assay: Inhibition of tumor sphere formation in human HCT-116 cells at 1.25 uM incubated for 24 hrs; assay type: functional, cell-based
# [4] = system: RKO; assay: Antiproliferative activity against human RKO cells assessed as inhibition of cell proliferation incubated for 72 hrs by CCK-8 assay; assay type: functional, cell-based
# [5] = system: Calu-1; assay: Antiproliferative activity against human Calu-1 cells assessed as inhibition of cell proliferation incubated for 72 hrs by CCK-8 assay; assay type: functional, cell-based; conditions: Calu-1, 72 h
# [6] = Induction of cell cycle arrest in mouse WEHI-3 cells assessed as increase in accumulation of cells at G2 phase at 0.5 uM incubated for 24 hrs by propidium iodide staining based flow cytometric analysis (reference value: 1.85%); assay type: functional
# [7] = system: WEHI-3; assay: Induction of apoptosis in mouse WEHI-3 cells assessed as increase in caspase-3 level incubated for 72 hrs by Western blotting analysis; assay type: functional, cell-based; conditions: dose 0.625-5 µM
# [8] = Toxicity in Balb/c mouse implanted with mouse WEHI-3 cells assessed as separation between white and red pulp area in spleen at 100 to 200 mg/kg, po administered (4aR,6aS,7S,9aS,9bS)-2-(((S)-2-(hydroxymethyl)pyrrolidin-1-yl)methyl)-6a-methyl7 ((triisopropylsilyl)oxy)decahydrocyclopenta[f]chromen-3(2H)-one as prodrug once daily and measured after 15 days; assay type: organism-based; conditions: in vivo, 360 h, dose 100-200 mg/kg, time 15 day
# [9] = system: Kasumi 1; assay: Antiproliferative activity against human Kasumi 1 cells assessed as inhibition cell proliferation incubated for 72 hrs by MTT assay; assay type: functional, cell-based; conditions: Kasumi 1, 72 h
# [10] = Toxicity in Balb/c mouse implanted with mouse WEHI-3 cells assessed as animal survival at 100 to 200 mg/kg, po administered (4aR,6aS,7S,9aS,9bS)-2-(((S)-2-(hydroxymethyl)pyrrolidin-1-yl)methyl)-6a-methyl7 ((triisopropylsilyl)oxy)decahydrocyclopenta[f]chromen-3(2H)-one as prodrug once daily and measured after 15 days; assay type: organism-based; conditions: in vivo, 360 h, dose 100-200 mg/kg, time 15 day
# [11] = system: Kasumi 1; assay: Induction of cell cycle arrest in human Kasumi 1 cells assessed as increase in accumulation of cells at G1 phase at 0.5 uM incubated for 24 hrs by propidium iodide staining based flow cytometric analysis (reference value: 50.41%); assay type: functional
# [12] = system: MV4-11; assay: Antiproliferative activity against human MV4-11 cells assessed as inhibition cell proliferation incubated for 72 hrs by MTT assay; assay type: functional, cell-based; conditions: MV4-11, 72 h
# [13] = Toxicity in Balb/c mouse implanted with mouse WEHI-3 cells assessed as change in body weight at 100 to 200 mg/kg, po administered (4aR,6aS,7S,9aS,9bS)-2-(((S)-2-(hydroxymethyl)pyrrolidin-1-yl)methyl)-6a-methyl7 ((triisopropylsilyl)oxy)decahydrocyclopenta[f]chromen-3(2H)-one as prodrug once daily and measured after 15 days; assay type: organism-based; conditions: in vivo, 360 h, dose 100-200 mg/kg, time 15 day
# [14] = system: MIA PaCa-2; assay: Antiproliferative activity against human MIA PaCa-2 cells assessed as inhibition of cell proliferation incubated for 72 hrs by CCK-8 assay; assay type: functional, cell-based; conditions: MIA PaCa-2, 72 h
# [15] = system: NCI-H460; assay: Antiproliferative activity against human NCI-H460 cells assessed as inhibition of cell proliferation incubated for 72 hrs by CCK-8 assay; assay type: functional, cell-based; conditions: NCI-H460, 72 h
# [16] = system: Kasumi 1; assay: Induction of cell differentiation in human Kasumi 1 cells assessed as increase in CD11B expression by Western blotting analysis; assay type: functional, cell-based; conditions: dose 0.25-1 µM
# [17] = system: WEHI-3; assay: Induction of cell cycle arrest in mouse WEHI-3 cells assessed as increase in P21 level at 0.15 to 1.2 uM incubated for 24 hrs by Western blotting analysis; assay type: functional, cell-based; conditions: dose 0.15-1.2 µM
# [18] = system: Kasumi 1; assay: Induction of cell cycle arrest in human Kasumi 1 cells assessed as increase in accumulation of cells at G1 phase at 0.25 uM incubated for 24 hrs by propidium iodide staining based flow cytometric analysis (reference value: 50.41%); assay type: functional
# [19] = system: A549; assay: Antiproliferative activity against human A549 cells assessed as inhibition of cell proliferation incubated for 72 hrs by CCK-8 assay; assay type: functional, cell-based; conditions: A549, 72 h
# [20] = system: WEHI-3; assay: Induction of pyroptosis in mouse WEHI-3 cells assessed as effect on cleaved N-GSDMB at 0.6 to 2.5 uM incubated for 24 hrs by Western blotting analysis; assay type: functional, cell-based; conditions: dose 0.6-2.5 µM
# [21] = system: Z-138; assay: Antiproliferative activity against human Z138 cells assessed as inhibition of cell proliferation incubated for 72 hrs by CCK-8 assay; assay type: functional, cell-based; conditions: Z-138, 72 h
# [22] = Induction of cell cycle arrest in mouse WEHI-3 cells assessed as increase in accumulation of cells at G2 phase at 0.25 uM incubated for 24 hrs by propidium iodide staining based flow cytometric analysis (reference value: 1.85%); assay type: functional
# [23] = system: WEHI-3; assay: Antitumor activity against mouse WEHI-3 cells implanted in Balb/c mouse assessed as reduction in leukocyte number at 100 to 200 mg/kg, po administered (4aR,6aS,7S,9aS,9bS)-2-(((S)-2-(hydroxymethyl)pyrrolidin-1-yl)methyl)-6a-methyl7 ((triisopropylsilyl)oxy)decahydrocyclopenta[f]chromen-3(2H)-one as prodrug once daily and measured after 15 days by H and E staining based analysis; assay type: functional, organism-based; conditions: dose 100-200 mg/kg, time 15.0 day
# [24] = system: Kasumi 1; assay: Inhibition of colony formation in human Kasumi 1 cells incubated for 15 days by crystal violet staining based analysis; assay type: functional, cell-based; conditions: dose 0.5-1 µM, time 15.0 day
# [25] = Induction of cell cycle arrest in mouse WEHI-3 cells assessed as increase in accumulation of cells at G2 phase at 1 uM incubated for 24 hrs by propidium iodide staining based flow cytometric analysis (reference value: 1.85%); assay type: functional
# [26] = system: HT-29; assay: Antiproliferative activity against human HT-29 cells assessed as inhibition of cell proliferation incubated for 72 hrs by CCK-8 assay; assay type: functional, cell-based; conditions: HT-29, 72 h
# [27] = system: Kasumi 1; assay: Induction of cell cycle arrest in human Kasumi 1 cells assessed as increase in accumulation of cells at S phase at 0.25 uM incubated for 24 hrs by propidium iodide staining based flow cytometric analysis (reference value: 39.77%); assay type: functional
# [28] = system: Kasumi 1; assay: Induction of cell cycle arrest in human Kasumi 1 cells assessed as increase in accumulation of cells at G2 phase at 0.5 uM incubated for 24 hrs by propidium iodide staining based flow cytometric analysis (reference value: 9.82%); assay type: functional
# [29] = system: WEHI-3; assay: Induction of pyroptosis in mouse WEHI-3 cells assessed as increase in p-MLKL level at 0.625 to 5 uM incubated for 72 hrs by Western blotting analysis; assay type: functional, cell-based; conditions: dose 0.625-5 µM
# [30] = system: WEHI-3; assay: Induction of pyroptosis in mouse WEHI-3 cells assessed as increase in p-RIPK3 level at 0.625 to 5 uM incubated for 72 hrs by Western blotting analysis; assay type: functional, cell-based; conditions: dose 0.625-5 µM
# [31] = system: Kasumi 1; assay: Induction of cell cycle arrest in human Kasumi 1 cells assessed as increase in accumulation of cells at G2 phase at 1 uM incubated for 24 hrs by propidium iodide staining based flow cytometric analysis (reference value: 9.82%); assay type: functional
# [32] = system: NCI-H23; assay: Antiproliferative activity against human NCI-H23 cells assessed as inhibition of cell proliferation incubated for 72 hrs by CCK-8 assay; assay type: functional, cell-based; conditions: NCI-H23, 72 h
smiles,measurement,setting,value
C=C1C[C@@H]2[C@@H](CC[C@]3(C)[C@@H](O[Si](C(C)C)(C(C)C)C(C)C)CC[C@@H]23)OC1=O,IC50,[1],> 10000 nM
same,inhibition,[2],Active
same,inhibition,[3],Active
same,IC50,[4],2070 nM
same,IC50,[5],3600 nM
same,Activity,[6],3.33%
same,Activity,[7],Dose-dependent-effect
same,Activity,[8],Non-toxic
same,IC50,[9],570 nM
same,Activity,[10],Non-toxic
same,Activity,[11],53.53%
same,IC50,[12],1750 nM
same,Activity,[13],Non-toxic
same,IC50,[14],1710 nM
same,IC50,[15],2820 nM
same,Activity,[16],Dose-dependent-effect
same,Activity,[17],Active
same,Activity,[18],52.67%
same,IC50,[19],5240 nM
same,Activity,[20],Active
same,IC50,[21],1880 nM
same,Activity,[22],1.76%
same,Activity,[23],Active
same,inhibition,[24],Dose-dependent-effect
same,Activity,[25],3.39%
same,IC50,[26],1740 nM
same,Activity,[27],36.36%
same,Activity,[28],14.84%
same,Activity,[29],Active
same,Activity,[30],Active
same,Activity,[31],18.95%
same,IC50,[32],4000 nM
